Laboratory results published in patent publication US8722849B2, “Polypeptides” (Novo Nordisk A/S, priority 2011, dated 2014).
Converted amounts (≈) assume the structure as drawn. Where two headings read alike, the source gives them in different places. Starred links: 1 amine or outer side, 2 acyl side, 3 side chain; linkers in the order of their positions; H or OH if unused. Positions of bridges follow the written chain, without caps; N, C: chain ends. Residues, ends and D or L forms follow the SMILES beside them. *: point of attachment. C20 diacid = O=C(O)CCCCCCCCCCCCCCCCCCC(=O)*; γGlu = O=C(O)[C@H](CCC(=O)[*:2])N[*:1]

Assays:
[1] = molecular target: T1, human amylin receptor (amylin 3(a) receptor: human calcitonin receptor + RAMP-3) (Homo sapiens, UniProt O60896+P30988); assay: Assay (II)a functional CRE-luciferase assay, human amylin receptor; format: cell-based
T1 construct: expressed in transfected cells; host or cells: BHK570
T1 sequence (P30988 25-474): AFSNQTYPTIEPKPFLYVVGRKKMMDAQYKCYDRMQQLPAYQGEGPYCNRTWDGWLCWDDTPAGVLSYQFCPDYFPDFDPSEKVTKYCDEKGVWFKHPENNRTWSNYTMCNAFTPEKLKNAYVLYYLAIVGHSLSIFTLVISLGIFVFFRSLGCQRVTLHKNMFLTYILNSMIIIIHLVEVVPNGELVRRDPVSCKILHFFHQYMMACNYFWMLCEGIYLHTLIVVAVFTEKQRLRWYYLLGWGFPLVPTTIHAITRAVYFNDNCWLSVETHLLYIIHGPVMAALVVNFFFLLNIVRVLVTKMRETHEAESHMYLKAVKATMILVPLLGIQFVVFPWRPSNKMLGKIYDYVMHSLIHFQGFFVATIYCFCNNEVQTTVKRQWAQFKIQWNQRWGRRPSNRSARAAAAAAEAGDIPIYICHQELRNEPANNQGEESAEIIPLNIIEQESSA
T1 sequence (O60896 24-148 partner): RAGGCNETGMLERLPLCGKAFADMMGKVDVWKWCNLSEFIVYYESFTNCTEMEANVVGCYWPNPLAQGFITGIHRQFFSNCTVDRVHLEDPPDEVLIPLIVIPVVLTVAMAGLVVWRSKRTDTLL

[2] = molecular target: T2, human calcitonin receptor (Homo sapiens, UniProt P30988); assay: Assay (II)a functional CRE-luciferase assay, human calcitonin receptor; format: cell-based
T2 construct: expressed in transfected cells; host or cells: BHK570
T2 sequence (P30988 25-474): T1 sequence (P30988 25-474)

[3] = Assay (III) ThT fibrillation assay for physical stability; format: physicochemical; settings: ThT fibrillation assay
In short: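 Freshly prepared formulations, pH-adjusted, with 1 μM ThT; four or eight replicates incubated at 37 °C under 960 rpm orbital shaking. Fluorescence (ex 444/em 485 nm) read every 20 min; […]. Peptide concentration measured by RP-HPLC before and after the run.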

[4] = Assay (IV) determination of solubility; format: physicochemical
In short: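 Solubility was profiled across pH 3.0–8.0 after 18 hours at room temperature: a ~500 nmol/ml aqueous polypeptide solution was diluted 1:1 into 100 mM glycylglycine or bistrispropane buffers. After centrifugation, HPLC gave the dissolved concentration.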

[5] = Table 2, BHK amylin 3(a)-receptor/CRE-luc cells
[6] = Table 7, human calcitonin (CTa) receptor
[7] = bistrispropane buffer, pH 6, pH 6.0, read-out: Solubility pH 6.0
[8] = bistrispropane buffer, pH 6.5, pH 6.5, read-out: Solubility pH 6.5
[9] = bistrispropane buffer, pH 7, pH 7.0, read-out: Solubility pH 7.0
[10] = bistrispropane buffer, pH 7.5, pH 7.5, read-out: Solubility pH 7.5
[11] = bistrispropane buffer, pH 8, pH 8.0, read-out: Solubility pH 8.0
[12] = glycylglycine buffer, pH 3, pH 3.0, read-out: Solubility pH 3.0
[13] = glycylglycine buffer, pH 4, pH 4.0, 18 hours at room temperature, Table 2, read-out: Solubility pH 4.0
[14] = glycylglycine buffer, pH 4, pH 4.0, read-out: Solubility pH 4.0
[15] = glycylglycine buffer, pH 5, pH 5.0, read-out: Solubility pH 5.0

Row | EC50 [1, 5] | EC50 [2, 6] | ThT pH 4.0 lag time [3] | ThT pH 4.0 lag time (h) [3] | solubility at 18 h [4, 7] | solubility at 18 h [4, 8] | solubility at 18 h [4, 9] | solubility at 18 h [4, 10] | solubility at 18 h [4, 11] | solubility at 18 h [4, 12] | solubility at 18 h [4, 13] | solubility at 18 h [4, 14] | solubility at 18 h [4, 15] | EC50 ([1]; Table 11) | EC50 ([2]; Table 11, read-out: CTa receptor human EC50) | solubility at 18 h ([4]; pH 8.0, read-out: Solubility pH 8.0) | Structure (SMILES)
1 | 0.382 nM | 0.113 nM | >45 h | >45 h | > 200 µM | 73 µM (≈ 328 µg/mL) | 14 µM (≈ 62.9 µg/mL) | 31 µM (≈ 139 µg/mL) | 79 µM (≈ 355 µg/mL) | > 200 µM | > 200 µM | > 200 µM | > 200 µM | – | – | – | CC[C@H](C)[C@H](NC(=O)[C@@H]1CCCN1C(=O)CNC(=O)[C@H](Cc1ccccc1)NC(=O)[C@H](CC(N)=O)NC(=O)[C@H](CC(N)=O)NC(=O)[C@H](CO)NC(=O)[C@H](CO)NC(=O)[C@H](Cc1c[nH]cn1)NC(=O)[C@H](Cc1c[nH]cn1)NC(=O)[C@H](CC(C)C)NC(=O)[C@H](Cc1ccccc1)NC(=O)[C@H](CCC(=O)O)NC(=O)[C@H](C)NC(=O)[C@H](CC(C)C)NC(=O)[C@H](CCCNC(=N)N)NC(=O)[C@H](CCC(N)=O)NC(=O)[C@@H](NC(=O)[C@H](C)NC(=O)[C@@H]1CSSC[C@H](NC(=O)[C@H](CCCCN)NC(=O)CC[C@H](NC(=O)CCCCCCCCCCCCCCCCCCC(=O)O)C(=O)O)C(=O)N[C@@H](CC(N)=O)C(=O)N[C@@H]([C@@H](C)O)C(=O)N[C@@H](C)C(=O)N[C@@H]([C@@H](C)O)C(=O)N1)[C@@H](C)O)C(=O)N[C@@H](CC(C)C)C(=O)N1CCC[C@H]1C(=O)N1CCC[C@H]1C(=O)N[C@H](C(=O)N[C@@H](CC(N)=O)C(=O)N[C@H](C(=O)NCC(=O)N[C@@H](CO)C(=O)N[C@@H](CC(N)=O)C(=O)N[C@@H](Cc1c[nH]cn1)C(=O)N[C@@H](Cc1ccc(O)cc1)C(N)=O)C(C)C)[C@@H](C)O [Example 114, N-alpha-[(S)-4-Carboxy-4-(19-carboxynonadecanoylamino)butyryl]-[Glu14,His17,His36]-pramlintide] ({C20 diacid-γGlu}-KCNTATCATQRLAEFLHHSSNNFGPILPPTNVGSNHY-NH2; disulfide 2-7 (inferred))
2 | – | – | – | 1.7 h | 2 µM (≈ 9.02 µg/mL) | 1 µM (≈ 4.51 µg/mL) | 1 µM (≈ 4.51 µg/mL) | 1 µM (≈ 4.51 µg/mL) | – | > 200 µM | – | > 200 µM | > 200 µM | 0.045 nM | 0.0875 nM | 1 µM (≈ 4.51 µg/mL) | CC[C@H](C)[C@H](NC(=O)[C@@H]1CCCN1C(=O)CNC(=O)[C@H](Cc1ccccc1)NC(=O)[C@H](CC(N)=O)NC(=O)[C@H](CC(N)=O)NC(=O)[C@H](CO)NC(=O)[C@H](CO)NC(=O)[C@H](Cc1c[nH]cn1)NC(=O)[C@@H](NC(=O)[C@H](CC(C)C)NC(=O)[C@H](Cc1ccccc1)NC(=O)[C@H](CC(N)=O)NC(=O)[C@H](C)NC(=O)[C@H](CC(C)C)NC(=O)[C@H](CCCNC(=N)N)NC(=O)[C@H](CCC(N)=O)NC(=O)[C@@H](NC(=O)[C@H](C)NC(=O)[C@@H]1CSSC[C@H](NC(=O)[C@H](CCCNC(=N)N)NC(=O)CNC(=O)CC[C@H](NC(=O)CCCCCCCCCCCCCCCCCCC(=O)O)C(=O)O)C(=O)N[C@@H](CC(N)=O)C(=O)N[C@@H]([C@@H](C)O)C(=O)N[C@@H](C)C(=O)N[C@@H]([C@@H](C)O)C(=O)N1)[C@@H](C)O)C(C)C)C(=O)N[C@@H](CC(C)C)C(=O)N1CCC[C@H]1C(=O)N1CCC[C@H]1C(=O)N[C@H](C(=O)N[C@@H](CC(N)=O)C(=O)N[C@H](C(=O)NCC(=O)N[C@@H](CO)C(=O)N[C@@H](Cc1c[nH]cn1)C(=O)N[C@H](C(=O)N[C@@H](Cc1ccc(O)cc1)C(N)=O)[C@@H](C)O)C(C)C)[C@@H](C)O [Example 99, N-alpha-[(S)-4-Carboxy-4-(19-carboxynonadecanoylamino)butyryl]-Gly-[Arg1,His35]-pramlintide] ({C20 diacid-γGlu}-GRCNTATCATQRLANFLVHSSNNFGPILPPTNVGSHTY-NH2; disulfide 3-8 (inferred); C-terminus assumed)
3 | 0.066 nM | 0.11 nM | >45 h | >45 h | 185 µM (≈ 834 µg/mL) | 23 µM (≈ 104 µg/mL) | 5 µM (≈ 22.5 µg/mL) | 33 µM (≈ 149 µg/mL) | 94 µM (≈ 424 µg/mL) | > 200 µM | > 200 µM | > 200 µM | > 200 µM | – | – | – | CC[C@H](C)[C@H](NC(=O)[C@@H]1CCCN1C(=O)CNC(=O)[C@H](Cc1ccccc1)NC(=O)[C@H](CC(N)=O)NC(=O)[C@H](CC(N)=O)NC(=O)[C@H](CO)NC(=O)[C@H](CO)NC(=O)[C@H](CCCNC(=N)N)NC(=O)[C@H](Cc1c[nH]cn1)NC(=O)[C@H](CC(C)C)NC(=O)[C@H](Cc1ccccc1)NC(=O)[C@H](CCC(=O)O)NC(=O)[C@H](C)NC(=O)[C@H](CC(C)C)NC(=O)[C@H](CCCNC(=N)N)NC(=O)[C@H](CCC(N)=O)NC(=O)[C@@H](NC(=O)[C@H](C)NC(=O)[C@@H]1CSSC[C@H](NC(=O)[C@H](Cc2c[nH]cn2)NC(=O)CC[C@H](NC(=O)CCCCCCCCCCCCCCCCCCC(=O)O)C(=O)O)C(=O)N[C@@H](CC(N)=O)C(=O)N[C@@H]([C@@H](C)O)C(=O)N[C@@H](C)C(=O)N[C@@H]([C@@H](C)O)C(=O)N1)[C@@H](C)O)C(=O)N[C@@H](CC(C)C)C(=O)N1CCC[C@H]1C(=O)N1CCC[C@H]1C(=O)N[C@H](C(=O)N[C@@H](CC(N)=O)C(=O)N[C@H](C(=O)NCC(=O)N[C@@H](CO)C(=O)N[C@@H](Cc1c[nH]cn1)C(=O)N[C@H](C(=O)N[C@@H](Cc1ccc(O)cc1)C(N)=O)[C@@H](C)O)C(C)C)[C@@H](C)O [Example 77, N-alpha-[(S)-4-Carboxy-4-(19-carboxynonadecanoylamino)butyryl]-[His1,Glu14,His17,Arg18,His35]-pramlintide] ({C20 diacid-γGlu}-HCNTATCATQRLAEFLHRSSNNFGPILPPTNVGSHTY-NH2; disulfide 2-7 (inferred); C-terminus assumed)
